Where two headings read alike, the source gives them in different places.
Experiments:
human β3-AR = target: T1, human β3-AR (Homo sapiens, UniProt P13945); assay: cAMP accumulation (SPA) in CHO cells transfected with human β3 adrenergic receptor; format: cell-based; details: for Emax: read-out: IA(β3)
T1 construct: Full length β3 AR clones (402 amino acids) containing the last 6 amino acids of hβ3; expressed in transfected cells; host or cells: CHO (Chinese hamster ovary) cells
Protocol: The ability of compounds of this invention to treat or inhibit disorders related to insulin resistance or hyperglycemia was established with representative compounds of this invention in the following standard pharmacological test procedures, which measured the binding selectivity to the β1, β2, and β3 adrenergic receptors. Binding to the receptors was measured in Chinese Hamster ovary (CHO) cells that were transfected with adrenergic receptors. The following briefly summarizes the procedures used and results obtained.
Cloning of Human β3-AR Genomic DNA: cDNA was constructed by ligating four polymerase chain reaction (PCR) products using the following primers: an ATG-Narl fragment, sense primer 5′-[…]3′ and anti-sense primer 5′[…]3′; a Narl-Accl fragment, 5′[…]3′ as sense and 5′[…]3′ as anti-sense primer; an Accli-Styl fragment, sense primer 5′[…]3′ and anti-sense primer 5′[…]3′ and a Styl-TAG fragment, with sense primer 5′[…]3′ and anti-sense primer 5′[…]3′. The corresponding primer sequences are described in Mantzoros, C. S., etal, Diabetes 45: 909-914 (1996). The four fragments are ligated into a pUC 18 plasmid (Gibco-BRL) and sequenced. Full length β3 AR clones (402 amino acids) containing the last 6 amino acids of hβ3 . . . AR are prepared with the β3-βARpcDNA3 from ATTC.
Binding Procedure: Clones expressing receptor levels of 70 to 110 fmoles/mg protein were used in the test procedures. CHO cells were grown in 24-well tissue culture plates in Dulbecco's Modified Eagle Media with 10% fetal bovine serum, MEM non-essential amino acids, Penicillin-Streptompycin and Geneticin. On the day of test procedure, growth medium was replaced with preincubation media (Dulbecco's Modified Eagle Media and incubated for 30 minutes at 37° C. Preincubation medium was replaced with 0.2 ml treatment medium containing DMEM media containing 250 μM IBMX (isobutyl-1-methylxantine) plus 1 mM ascorbic acid with test compound dissolved in DMSO. Test compounds were tested over a concentration range of 10^−9 M to 10^−5 M for β3 cells and 10^″8 to 10^″4 M for β1 and β2 transfected cells. Isoproterenol (10^−5 M) was used as an internal standard for comparison of activity. Cells were incubated at 37° C. on a rocker for 30 min with the β3 cells and 15 min for β1 and β2 cells. Incubation was stopped with the addition of 0.2 N HCI and neutralized with 2.5 N NaOH. The plates, containing the cells and neutralized media, were stored at −20 degrees celsius until ready to test for cAMP using the SPA test kit (Amersham).
Data Analysis and Results: Data collected from the SPA test procedure were analyzed as percent of the maximal isoproterenol response at 10^−5 M. Activity curves were plotted using the SAS statistical and graphics software. EC50 values were generated for each compound and the maximal response (IA) developed for each compound is compared to the maximal response of isoproternol at 10^−5 M from the following formula: [formula]

[1] = CHO cells expressing human β3-AR, cAMP, 30 min at 37° C., 10^-9 M to 10^-5 M, read-out: EC50(β3)
[2] = maximal response compared to the maximal response of isoproterenol at 10^-5 M, CHO cells expressing human β3-AR

T1 sequence (P13945 whole entry): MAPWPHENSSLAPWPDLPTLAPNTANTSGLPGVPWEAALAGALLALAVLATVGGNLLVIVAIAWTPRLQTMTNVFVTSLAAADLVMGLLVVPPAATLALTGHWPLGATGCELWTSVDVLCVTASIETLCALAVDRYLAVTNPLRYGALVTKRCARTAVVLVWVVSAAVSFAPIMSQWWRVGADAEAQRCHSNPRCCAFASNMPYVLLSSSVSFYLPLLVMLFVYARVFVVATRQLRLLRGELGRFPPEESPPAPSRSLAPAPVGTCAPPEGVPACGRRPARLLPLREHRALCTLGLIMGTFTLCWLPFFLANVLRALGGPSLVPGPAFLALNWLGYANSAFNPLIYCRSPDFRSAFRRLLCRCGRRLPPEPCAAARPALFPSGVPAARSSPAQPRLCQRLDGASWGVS

| SMILES | EC50 (human β3-AR) | Emax (human β3-AR; CHO) | EC50 (human β3-AR; [1]) | Emax (human β3-AR; [2]) | melting point |
| --- | --- | --- | --- | --- | --- |
| CC(Cc1ccc(NC2SC(=O)NC2=O)cc1)NC[C@H](O)c1cccc(Cl)c1 (stereo partly shown) [Example 18, 5-[4-(2-{[(2 R)-2-(3-Chlorophenyl)-2-hydroxyethyl]amino}propyl)anilino]-1,3-thiazolidine-2,4-dione] | 9 nM | 89% | – | – | – |
| O=C1NC(=O)C(Nc2ccc(CCNC[C@@H](O)COc3cccc4[nH]c(=O)[nH]c34)cc2)S1 (stereo partly shown) [Example 19, 5-{4-[2-({(2 R)-2-Hydroxy-3-[(2-oxo-2,3-di hydro-1 H-benzimidazol-4-yl)oxy]propyl}amino)ethyl]anilino}-1,3-thiazolidine-2,4-dione] | – | – | 20 nM | 71% | – |
| CS(=O)(=O)Nc1cc([C@H](O)CNCCc2ccc(NC3SC(=O)NC3=O)cc2)ccc1O (stereo partly shown) [Example 14, N{5-[(1 S)-2-({4-[(2,4-Dioxo-1,3-thiazolidin-5-yl)amino]phenethyl}amino)-1-hydroxyethyl]-2-hydroxyphenyl}methanesulfonamide] | – | – | 9 nM | 111% | – |
| O=C1NC(=O)C(Nc2ccc(CCNC[C@H](O)COc3ccc(OCc4ccccc4)cc3)cc2)S1 (stereo partly shown) [Example 4, 5-{4-[2-({(2 S)-3-[4-(Benzyloxy)phenoxy]-2-hydroxypropyl}amino)ethyl]anilino}-1,3-thiazolidine-2,4-dione] | – | – | 1 nM | 85% | 152 °C |
| CN(c1ccc(CCNC[C@H](O)COc2ccccc2)cc1)C1SC(=O)NC1=O (stereo partly shown) [Example 17, 5-[4-(2-{[(2 S)-2-Hydroxy-3-phenoxypropyl]amino}ethyl)(methyl)anilino]-1,3-thiazolidine-2,4-dione.] | – | – | 17 nM | 68% | – |
| O=C1NC(=O)C(Nc2ccc(CCNC[C@H](O)COc3ccc(F)cc3)cc2)S1 (stereo partly shown) [Example 8, 5-[4-(2-{[(2 S)-3-(4-Fluorophenoxy)-2-hydroxypropyl]amino}ethyl)anilino]-1,3-thiazolidine-2,4-dione] | – | – | 14 nM | 66% | – |
| O=C1NC(=O)C(Nc2ccc(CCNC[C@H](O)c3cccnc3)cc2)S1 (stereo partly shown) [Example 31, 5-{4-[2-((2 R)-2-Hydroxy-2-pyridin-3-yl-ethylamino)-ethyl]-phenylamino}-thiazolidine-2,4-dione] | – | – | 96 nM | 88% | – |
| O=C1NC(=O)C(Nc2ccc(CCNC[C@H](O)COc3cccc(O)c3)cc2)S1 (stereo partly shown) [Example 12, 5-[4-(2-{[(2 S)-2-Hydroxy-3-(3-hydroxyphenoxy)propyl]amino}ethyl)anilino]-1,3-thiazolidine-2,4-dione] | – | – | 3 nM | 117% | – |
| O=C1NC(=O)C(Nc2ccc(CCNC[C@H](O)COc3ccccc3)cc2)S1 (stereo partly shown) [Example 9, 5-[4-(2-{[(2 S)-2-Hydroxy-3-phenoxypropyl]amino}ethyl)anilino]-1,3-thiazolidine-2,4-dione] | – | – | 0.9 nM | 98% | – |
| O=C1NC(=O)C(N(Cc2ccc(Br)cc2)c2ccc(CCNC[C@H](O)COc3ccccc3)cc2)S1 (stereo partly shown) [Example 29, 5-((4-Bromo-benzyl)-{4-[2-((2 S)-2-hydroxy-3-phenoxy-propylamino)-ethyl]-phenyl}-amino)-thiazolidine-2,4-dione] | – | – | 3 nM | 109% | – |
| O=C1NC(=O)C(Nc2ccc(CCNC[C@H](O)c3cccc(Cl)c3)cc2)S1 (stereo partly shown) [Example 6, 5-[4-(2-{[(2 R)-2-(3-Chlorophenyl)-2-hydroxy-ethyl]amino}ethyl)anilino]-1,3-thiazolidine-2,4-dione] | – | – | 7 nM | 83% | 162 °C |
| O=C1NC(=O)C(Nc2ccc(CCNC[C@H](O)COc3cccc4[nH]c5ccccc5c34)cc2)S1 (stereo partly shown) [Example 13, 5-[4-(2-{[(2 S)-3-(9 H-Carbazol-4-yloxy)-2-hydroxypropyl]amino}ethyl)anilino]-1 ,3-thiazolidine-2,4-dione] | – | – | 12 nM | 104% | – |
| O=C1NC(=O)C(Nc2ccc(CCNC[C@H](O)c3ccccc3)cc2)S1 (stereo partly shown) [Example 7, 5-[4-(2-{[(2 R)-2-Hydroxy-2-phenylethyl]amino}ethyl)anilino]-1,3-thiazolidine-2,4-dione] | – | – | 83 nM | 94% | – |
| O=C1NC(=O)C(Nc2ccc(CCNC[C@H](O)COc3ccc(O)cc3)cc2)S1 (stereo partly shown) [Example 5, 5-[4-(2-{[(2 S)-2-Hydroxy-3-(4-hydroxyphenoxy)propyl]amino}ethyl)anilino]-1,3-thiazolidine-2,4-dione] | – | – | 20 nM | 99% | 165 °C |

— patent US6465501B2, “Azolidines as β3 adrenergic receptor agonists” (Wyeth, priority 2000, dated 2002)
